Patent US6075013A, “Modified low molecular weight heparin that inhibits clot associated coagulation factors” (Hamilton Civic Hospitals Research Development Inc., priority 1998, dated 2000)

Tests used:
washed plasma clot = experiment: procoagulant activity of washed plasma clot in unanticoagulated whole blood; format: biochemical; settings: washed plasma clot incubated in unanticoagulated whole blood
Excerpt: There is mounting evidence that both fibrin-bound thrombin and platelet-bound factor Xa contribute to the intense procoagulant activity of thrombi. […] Development of these agents requires an understanding of the mechanisms by which fibrin-bound IIa and platelet-bound factor Xa are protected from inactivation by heparin, LMWH and hirudin.

injured rabbit aorta = experiment: rabbit arterial thrombosis prevention model; format: in vivo; settings: over the doses tested
Description: The arterial thrombosis prevention model was modified so that both efficacy and safety could be assessed in the same animal. […] The four compounds were compared at three dosage levels. Each compound was administered as a bolus and infusion for 90 minutes. The doses listed in the following figures represent the bolus and infusion/60 minutes, administered for 90 minutes. The doses for heparin are shown as units/Kg, for LMWH and V21 as mg/Kg and for hirudin as mg/Kg. […] Thus, the specific activity of LMWH is 100 anti-Xa/mg and 30 anti-IIa units/mg. […] The anticoagulants were compared in the following dosages. Heparin 50 units/Kg and 75 unit/Kg; LMWH and V21 0.5, 1.0 and 1.5 mg/Kg; Hirudin 0.1/0.1, 0.1/0.2 and 0.1/0.3 mg/Kg.
FIG. 11 compares the efficacy of the four anticoagulants using cumulative time that the aorta remained patent over the 90 minutes of observation as the outcome measure of efficacy. One hundred percent accumulated patency reflects complete patency and 0% cumulative patency reflects immediate and sustained thrombotic occlusion.

[1] = target: thrombin (IIa) binding to fibrin (Homo sapiens, UniProt P00734); experiment: effect on thrombin (IIa) binding to fibrin / fibrin monomer-sepharose; settings: presence of 250 nM heparin
Description: FIGS. 1A and 1B illustrate the effects of varying heparin concentrations on thrombin (IIa) binding to fibrin (A) and on thrombin's apparent affinity for fibrin (B).
FIG. 3 illustrates the effect of hirugen (Hg), prothrombin fragment 2 (F2) or antibody against exosite 2 (Wab) on thrombin (IIa) binding to fibrin monomersepharose in the absence or presence of 250 nM heparin.
FIG. 9 illustrates the effect of unfractionated heparin (UFH) and a 6,000 Da heparin fraction (MLMWH) on thrombin (IIa) binding to fibrin.
When heparin is present, the amount of thrombin that binds to fibrin changes, as does the mode of thrombin interaction with fibrin.
The mode of thrombin binding also changes in the presence of heparin. Whereas thrombin binds to fibrin via exosite 1 in the absence of heparin, enhanced α-thrombin binding seen in the presence of heparin is mediated by exosite 2 because heparin augments the binding of γ-thrombin to the same extent as α-thrombin but has little effect on the binding of RA-thrombin (FIG. 2). Furthermore, excess α-thrombin bound in the presence of heparin is displaced with an antibody to exosite 2 or with prothrombin fragment 2 (F2) which, like heparin, also binds to exosite 2 (Arni, R. K., et al. (1993) Biochemistry 32:4727-4737). […]

## hirudin
Washed plasma clot
  block of the clot's ability to accelerate coagulation: cannot be blocked
Injured rabbit aorta
  response of the model to the antithrombotic effects: very responsive

## TAP: tick anticoagulant peptide, a direct inhibitor of factor Xa (YNRLCIKPRDWIDECDSNEGGERAYFRNGKGGCDSFWICPEDHTGADYYSSYRDCFNACI; UniProt P17726 1-60, looked up)
Washed plasma clot
  block of the clot's ability to accelerate coagulation: cannot be blocked

B1: prothrombin fragment 2 (F2): prothrombin fragment 2, binds to exosite 2 of thrombin (protein, UniProt P00734 199-327, looked up)
Activation peptide fragment 2: SEGSSVNLSPPLEQCVPDRGQQYQGRLAVTTHGLPCLAWASAQAKALSKHQDFNSAVQLVENFCRNPDGDEEGVWCYVAGKPGDFGYCDLNYCEEAVEEETGDGLDEDSDRAIEGRTATSEYQTFFNPR
modifications: Activation peptide fragment 2
[1]
  effect on heparin-dependent binding of thrombin to fibrin: displaced
